Assay results: PubChem BioAssay (NCI)
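Cultured in 96-well plates, cells were exposed to test compound for 48 hours across five concentrations. The concentration for 50% growth inhibition is given as GI50. At the TGI there is no net growth.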

How the values were obtained:
Experiment in all cases: growth of human tumour cells (NCI), 48 h
786-0 renal = tested on: 786-0 renal
A498 renal = tested on: A498 renal
A549 NSCLC = tested on: A549 NSCLC
ACHN renal = tested on: ACHN renal
BT-549 breast = tested on: BT-549 breast
CAKI-1 renal = tested on: CAKI-1 renal
CCRF-CEM leukemia = tested on: CCRF-CEM leukemia
COLO 205 colon = tested on: COLO 205 colon
DU-145 prostate = tested on: DU-145 prostate
EKVX NSCLC = tested on: EKVX NSCLC
HCC-2998 colon = tested on: HCC-2998 colon
HCT-116 colon = tested on: HCT-116 colon
HCT-15 colon = tested on: HCT-15 colon
HL-60(TB) leukemia = tested on: HL-60(TB) leukemia
HOP-62 NSCLC = tested on: HOP-62 NSCLC
HOP-92 NSCLC = tested on: HOP-92 NSCLC
HS 578T breast = tested on: HS 578T breast
HT29 colon = tested on: HT29 colon
IGROV1 ovarian = tested on: IGROV1 ovarian
K-562 leukemia = tested on: K-562 leukemia
KM12 colon = tested on: KM12 colon
LOX IMVI melanoma = tested on: LOX IMVI melanoma
M14 melanoma = tested on: M14 melanoma
MALME-3M melanoma = tested on: MALME-3M melanoma
MCF7 breast = tested on: MCF7 breast
MDA-MB-231 breast = tested on: MDA-MB-231 breast
MDA-MB-435 = tested on: MDA-MB-435
MOLT-4 leukemia = tested on: MOLT-4 leukemia
NCI-H23 lung = tested on: NCI-H23 lung
NCI-H460 lung = tested on: NCI-H460 lung
NCI-H522 lung = tested on: NCI-H522 lung
NCI/ADR-RES ovarian = tested on: NCI/ADR-RES ovarian
OVCAR-3 ovarian = tested on: OVCAR-3 ovarian
OVCAR-4 ovarian = tested on: OVCAR-4 ovarian
OVCAR-5 ovarian = tested on: OVCAR-5 ovarian
OVCAR-8 ovarian = tested on: OVCAR-8 ovarian
PC-3 prostate = tested on: PC-3 prostate
RPMI-8226 leukemia = tested on: RPMI-8226 leukemia
RXF 393 renal = tested on: RXF 393 renal
SF-268 CNS = tested on: SF-268 CNS
SF-295 CNS = tested on: SF-295 CNS
SF-539 CNS = tested on: SF-539 CNS
SK-MEL-2 melanoma = tested on: SK-MEL-2 melanoma
SK-MEL-28 melanoma = tested on: SK-MEL-28 melanoma
SK-MEL-5 melanoma = tested on: SK-MEL-5 melanoma
SK-OV-3 ovarian = tested on: SK-OV-3 ovarian
SN12C renal = tested on: SN12C renal
SNB-19 CNS = tested on: SNB-19 CNS
SNB-75 CNS = tested on: SNB-75 CNS
SR leukemia = tested on: SR leukemia
SW-620 colon = tested on: SW-620 colon
T-47D breast = tested on: T-47D breast
TK-10 renal = tested on: TK-10 renal
U251 CNS = tested on: U251 CNS
UACC-257 melanoma = tested on: UACC-257 melanoma
UACC-62 melanoma = tested on: UACC-62 melanoma
UO-31 renal = tested on: UO-31 renal

CCN1[C@@H](C(=O)NC23CCC(C(=O)O)(CC2)CC3)[C@H](c2cccc(Cl)c2F)[C@]2(C(=O)Nc3cc(Cl)ccc32)C12CCCCC2
GI50 (786-0 renal): 2.94 µM
TGI (786-0 renal): 12.1 µM
GI50 (A498 renal): 0.281 µM
TGI (A498 renal): 3.37 µM
GI50 (A549 NSCLC): 0.177 µM
TGI (A549 NSCLC): 7.03 µM
GI50 (ACHN renal): 0.0878 µM
TGI (ACHN renal): 3.77 µM
GI50 (BT-549 breast): 2.28 µM
TGI (BT-549 breast): 5.54 µM
GI50 (CAKI-1 renal): < 0.0149 µM
TGI (CAKI-1 renal): 0.817 µM
GI50 (CCRF-CEM leukemia): 2.98 µM
TGI (CCRF-CEM leukemia): 13.2 µM
GI50 (COLO 205 colon): 3.02 µM
TGI (COLO 205 colon): 10.6 µM
GI50 (DU-145 prostate): 5.47 µM
TGI (DU-145 prostate): 18.5 µM
GI50 (EKVX NSCLC): 2.53 µM
TGI (EKVX NSCLC): 13.7 µM
GI50 (HCC-2998 colon): 2.39 µM
TGI (HCC-2998 colon): 6.89 µM
GI50 (HCT-116 colon): 0.104 µM
TGI (HCT-116 colon): 3.11 µM
GI50 (HCT-15 colon): 2.57 µM
TGI (HCT-15 colon): 12.5 µM
GI50 (HL-60(TB) leukemia): 1.96 µM
TGI (HL-60(TB) leukemia): 6 µM
GI50 (HOP-62 NSCLC): 3.19 µM
TGI (HOP-62 NSCLC): 13.6 µM
GI50 (HOP-92 NSCLC): 2.15 µM
TGI (HOP-92 NSCLC): 6.45 µM
GI50 (HS 578T breast): 2.05 µM
TGI (HS 578T breast): 10.1 µM
GI50 (HT29 colon): 3.06 µM
TGI (HT29 colon): 14.8 µM
GI50 (IGROV1 ovarian): 0.99 µM
TGI (IGROV1 ovarian): 15.5 µM
GI50 (K-562 leukemia): 2.98 µM
TGI (K-562 leukemia): > 100 µM
GI50 (KM12 colon): 3.34 µM
TGI (KM12 colon): 12.7 µM
GI50 (LOX IMVI melanoma): 0.259 µM
TGI (LOX IMVI melanoma): 4.88 µM
GI50 (M14 melanoma): 3.22 µM
TGI (M14 melanoma): 13.1 µM
GI50 (MALME-3M melanoma): 0.0655 µM
TGI (MALME-3M melanoma): 1.18 µM
GI50 (MCF7 breast): 0.0523 µM
TGI (MCF7 breast): 3.97 µM
GI50 (MDA-MB-231 breast): 5.85 µM
TGI (MDA-MB-231 breast): 27.4 µM
GI50 (MDA-MB-435): 2.92 µM
TGI (MDA-MB-435): 10.7 µM
GI50 (MOLT-4 leukemia): 0.164 µM
TGI (MOLT-4 leukemia): > 22.9 µM
GI50 (NCI-H23 lung): 3.53 µM
TGI (NCI-H23 lung): 17.4 µM
GI50 (NCI-H460 lung): 0.0909 µM
TGI (NCI-H460 lung): 1.45 µM
GI50 (NCI-H522 lung): 2.62 µM
TGI (NCI-H522 lung): 8.24 µM
GI50 (NCI/ADR-RES ovarian): 5.65 µM
TGI (NCI/ADR-RES ovarian): 42.5 µM
GI50 (OVCAR-3 ovarian): 2.53 µM
TGI (OVCAR-3 ovarian): 7.74 µM
GI50 (OVCAR-4 ovarian): 3.37 µM
TGI (OVCAR-4 ovarian): 15.5 µM
GI50 (OVCAR-5 ovarian): 3.74 µM
TGI (OVCAR-5 ovarian): 17.8 µM
GI50 (OVCAR-8 ovarian): 3.84 µM
TGI (OVCAR-8 ovarian): 18.7 µM
GI50 (PC-3 prostate): 2.42 µM
TGI (PC-3 prostate): 9.21 µM
GI50 (RPMI-8226 leukemia): 2.33 µM
TGI (RPMI-8226 leukemia): 6.61 µM
GI50 (RXF 393 renal): 1.99 µM
TGI (RXF 393 renal): 5.69 µM
GI50 (SF-268 CNS): 3.1 µM
TGI (SF-268 CNS): 15.1 µM
GI50 (SF-295 CNS): 2.21 µM
TGI (SF-295 CNS): 7.29 µM
GI50 (SF-539 CNS): 2.78 µM
TGI (SF-539 CNS): 10.6 µM
GI50 (SK-MEL-2 melanoma): 2.02 µM
TGI (SK-MEL-2 melanoma): 5.18 µM
GI50 (SK-MEL-28 melanoma): 3.71 µM
TGI (SK-MEL-28 melanoma): 14 µM
GI50 (SK-MEL-5 melanoma): 1.39 µM
TGI (SK-MEL-5 melanoma): 2.75 µM
GI50 (SK-OV-3 ovarian): 3.03 µM
TGI (SK-OV-3 ovarian): 12 µM
GI50 (SN12C renal): 3.67 µM
TGI (SN12C renal): 19.4 µM
GI50 (SNB-19 CNS): 3.56 µM
TGI (SNB-19 CNS): 15.2 µM
GI50 (SNB-75 CNS): 1.91 µM
TGI (SNB-75 CNS): 14.8 µM
GI50 (SR leukemia): 0.0146 µM
TGI (SR leukemia): 4.72 µM
GI50 (SW-620 colon): 3.92 µM
TGI (SW-620 colon): 17.1 µM
GI50 (T-47D breast): 3.13 µM
TGI (T-47D breast): 19.4 µM
GI50 (TK-10 renal): 3.05 µM
TGI (TK-10 renal): 16.2 µM
GI50 (U251 CNS): 3.29 µM
TGI (U251 CNS): 15.5 µM
GI50 (UACC-257 melanoma): 0.228 µM
TGI (UACC-257 melanoma): 1.86 µM
GI50 (UACC-62 melanoma): 0.0372 µM
TGI (UACC-62 melanoma): 2.24 µM
GI50 (UO-31 renal): 0.0779 µM
TGI (UO-31 renal): 3.6 µM
